“And” between values parts separate entries of the source, which are not always exact repeats. Equal values may be shown once. No end group written: not given here.
How the values were obtained:
[1] = Cytotoxicity by CCK-8 in Vero cells; assay type: cell-based; settings: 24 h, read-out: Cell viability (%)
Experimental: (§1) The experiment was performed as follows. • (1) Vero cells were plated in a 96-well plate at 100 μl per well. • (2) After the cells reached 70%-80% confluence, the MEM medium containing 10% serum was replaced with a MEM medium containing 2% serum. Then, polypeptide BP8, BP10 or BP15 was added to generate gradient concentrations of […], […], 12.5 μM, 25 μM, 50 μM, 100 μM, and 200 μM (final concentrations), respectively. • (3) The samples were collected 24 hours after the addition of the polypeptide, and 10 μl of live cell detection reagent CCK-8 was added to each well and mixed well. • (4) The plate was placed at 37° C. for 4 h. • (5) The absorbance value at OD450 was measured with a microplate reader.

Vero cells = experiment: Cytotoxicity by CCK-8 in Vero cells; assay type: cell-based; settings: for Cell viability (%): 24 h; for cytotoxicity, result in words: CCK-8, 24 h
Experimental: as §1

[2] = Cytotoxicity by CCK-8 in RD cells; assay type: cell-based; settings: human; for CC50 at 24 h: Table 1 summary, cell line not given, read-out: CC50
Experimental: (§2) The experiment was performed as follows. • (1) RD cells were plated in a 96-well plate at 100 μl per well. • (2) After the cells reached 70%-80% confluence, the MEM medium containing 10% serum was replaced with a MEM medium containing 2% serum. Then, polypeptide P2 was added to generate gradient concentrations of 0.01 μM, 0.1 μM, 1 μM, 10 μM, and 100 μM (final concentration), respectively. • (3) The test was performed 24 hours after the addition of the polypeptide, and 10 μl of viable cell detection reagent CCK-8 was added to each well and mixed well. • (4) The plate was incubated at 37° C. for 2 h. • (5) The absorbance value at OD450 was measured with a microplate reader.
as §2, with “P1” for “P2”, “concentrations),” for “concentration),”
(§3) RD cells were used to test the antiviral effect of polypeptide P1. When RD cells reached 80% confluence, polypeptide P1 was added at concentrations of 0 μM (control group), 0.01 μM, 0.1 μM, 1 μM, 10 μM, and 100 μM, respectively. Three parallel wells were used for each concentration. The test was carried out 24 hours later, and the cell viability was detected using the CCK-8 kit.
as §2, with “3A-TAT-EP” for “P2”, “concentrations),” for “concentration),”
(§4) RD cells were used to test the antiviral effect of polypeptide 3A-TAT-EP. When RD cells reached 80% confluence, polypeptide 3A-TAT-EP was added at concentrations of 0 μM (control group), 0.01 μM, 0.1 μM, 1 μM, 10 μM, and 100 μM, respectively. Three parallel wells were used for each concentration. The test was carried out 24 hours later, and the cell viability was detected using the CCK-8 kit.
as §2, with “Then, 3A-EP-DRI or 3A-EP-PEG4-PA” for “Then, polypeptide P2”, “and 50” for “and 100”, “(final concentrations),” for “(final concentration),”
(§5) RD cells were used to test the antiviral effect of polypeptides 3A-EP-DRI and 3A-EP-PEG4-PA. When RD cells reached 80% confluence, polypeptide 3A-EP-DRI or 3A-EP-PEG4-PA was added at concentrations of 0 μM (control group), 0.01 μM, 0.1 μM, 1 μM, 10 μM, and 50 μM, respectively. Three parallel wells were used for each concentration. The test was carried out 24 hours later, and the cell viability was detected using the CCK-8 kit. […]

RD cells = experiment: Cytotoxicity by CCK-8 in RD cells; assay type: cell-based; settings: RD cells; for Cell viability (%): 24 h, CCK-8 4 h (Example 18); for cytotoxicity, result in words: CCK-8, 24 h
Experimental: as §2
as §2, with “P1” for “P2”, “concentrations),” for “concentration),”
as §3
as §2, with “3A-TAT-EP” for “P2”, “concentrations),” for “concentration),”
as §4
as §2, with “Then, 3A-EP-DRI or 3A-EP-PEG4-PA” for “Then, polypeptide P2”, “and 50” for “and 100”, “(final concentrations),” for “(final concentration),”
as §5

CVB5 = experiment: Anti-CVB5 effect in RD cells, qRT-PCR; assay type: cell-based, Coxsackievirus B5; settings: Example 20, read-out: IC50 against CVB5
Experimental: • (1) […] were plated in a 24-well cell plate. • (2) After the cells reached 70%-80% confluence, the MEM medium containing 10% serum was replaced with a MEM medium containing 2% serum (0.5 ml/well).

[3] = RD cells, 24 h, CCK-8 4 h (Example 18), read-out: Cell viability (%)

Molecule | viability at 24 h, 3.0625 µM [1] [%] | viability at 24 h, 6.125 µM [1] [%] | viability at 24 h, 12.5 µM [1] [%] | viability at 24 h, 25 µM [1] [%] | viability at 24 h, 50 µM [1] [%] | viability at 24 h, 100 µM [1] [%] | viability at 24 h, 200 µM [1] [%] | Cell viability (%) (Vero cells; 3.0625 μM) | Cell viability (%) (Vero cells; 6.125 μM) | Cell viability (%) (Vero cells; 12.5 μM) | Cell viability (%) (Vero cells; 25 μM) | Cell viability (%) (Vero cells; 50 μM) | Cell viability (%) (Vero cells; 100 μM) | Cell viability (%) (Vero cells; 200 μM) | cytotoxicity, result in words (Vero cells) | viability at 24 h, 3.0625 µM [2, 3] [%] | viability at 24 h, 6.125 µM [2, 3] [%] | viability at 24 h, 12.5 µM [2, 3] [%] | viability at 24 h, 25 µM [2, 3] [%] | viability at 24 h, 50 µM [2, 3] [%] | other results
CC(C)C[C@H](NC(=O)[C@H](Cc1c[nH]c2ccccc12)NC(=O)CNC(=O)[C@H](CCCCN)NC(=O)[C@H](CCC(=O)O)NC(=O)[C@H](CCCCN)NC(=O)[C@H](CS)NC(=O)[C@H](Cc1ccc(O)cc1)NC(=O)[C@H](CCC(=O)O)NC(=O)[C@H](CCCNC(=N)N)NC(=O)[C@@H](NC(=O)[C@H](C)NC(=O)[C@H](CCC(=O)O)NC(=O)CNC(=O)[C@H](CO)NC(=O)CNC(=O)[C@H](CCCNC(=N)N)NC(=O)[C@H](CCCNC(=N)N)NC(=O)[C@H](CCCNC(=N)N)NC(=O)[C@H](CCC(N)=O)NC(=O)[C@H](CCCNC(=N)N)NC(=O)[C@H](CCCNC(=N)N)NC(=O)[C@H](CCCCN)NC(=O)[C@H](CCCCN)NC(=O)[C@H](CCCNC(=N)N)NC(=O)CNC(=O)[C@@H](N)Cc1ccc(O)cc1)C(C)C)C(=O)N[C@H](C(=O)N1CCC[C@H]1C(=O)O)C(C)C [BP15] | 108 | 125 | 122 | 116 | 112 | 75.8 | 20 | 105.9733% and 109.128% | 127.0907% and 124.0647% | 120.3949% and 122.777% | 111.0595% and 118.2059% | 109.4499% and 102.9473% | 87.11% and 76.81% | 13.65% and 13.13% and 13.4559% | not toxic to cells within 100 μM | 91 | 104 | 96.7 | 96.7 | 107 | viability at 24 h, 100 µM [2, 3]: 96.3%; CC50 at 24 h [2]: > 100 µM; Cell viability (%) (RD cells; 3.0625 μM): 85.77% and 91.09%; Cell viability (%) (RD cells; 6.125 μM): 105.7678% and 97.72%; Cell viability (%) (RD cells; 12.5 μM): 98.76% and 95.25%; Cell viability (%) (RD cells; 25 μM): 92.912% and 95.05%; Cell viability (%) (RD cells; 50 μM): 103.6251% and 100.2489%; Cell viability (%) (RD cells; 100 μM): 99.4048% and 104.9237%; cytotoxicity, result in words (RD cells): not toxic to cells within 100 μM; IC50 (CVB5): 6.76 µM
YGRKKRRQRRRGSGEAVREYCKEK [BP10] | 107 | 119 | 122 | 117 | 109 | 92.8 | 83.1 | 106.2952% and 107.1965% | 119.236% and 118.9785% | 120.8456% and 123.9359% | 117.3689% and 116.0169% | 118.399% and 120.0086% | 92.32% and 94.06% | 86.72% and 82.22% | not toxic to cells within 200 μM | 97.7 | 98.5 | 94.8 | 109 | 109 | viability at 24 h, 100 µM [2, 3]: 107%; viability at 24 h, 200 µM ([2]; RD cells, 200 μM, 24 h, CCK-8 4 h (Example 18), read-out: Cell viability (%)): 79.7%; CC50 at 24 h [2]: > 200 µM; Cell viability (%) (RD cells; 3.0625 μM): 98.99% and 103.5309%; Cell viability (%) (RD cells; 6.125 μM): 93.25% and 92.62%; Cell viability (%) (RD cells; 12.5 μM): 97.35% and 100.8827%; Cell viability (%) (RD cells; 25 μM): 99.56% and 96.2169%; Cell viability (%) (RD cells; 50 μM): 115.4477% and 116.3934%; Cell viability (%) (RD cells; 100 μM): 112.232% and 114.3758%; Cell viability (%) (RD cells; 200 μM): 85.18% and 97.54%; cytotoxicity, result in words (RD cells): not toxic to cells within 200 μM; IC50 (CVB5): 1.33 µM

— US11999806B2, “Broad-spectrum polypeptide against enterovirus and application thereof” (WUHAN INSTITUTE OF VIROLOGY, CHINESE ACADEMY OF SCIENCES, priority 2018, dated 2024)
